Results taken from patent US12521414B2, “Method for preventing or treating urological chronic pelvic pain syndrome” (priority 2022, dated 2026).

Test system: Human urothelial T24 cells
Test: WST-1 cell viability assay, 4-HC-induced loss of T24 viability
Assay type: cell-based
Settings: 37.5 μM 4-HC for 4 h, WST-1 assay, n=3
Description: FIGS. 2A to 2D illustrate the CeNPs testing with human urothelial T24 cells in vitro. FIG. 2A illustrates that T24 cells were treated with 4-HC at concentrations of 0, 12.5, 25, 37.5, 50, 75, and 100 μM for 4 h (hours). Cell viability was examined utilizing the WST-1 assay (MK400, Takara, Mountain View, CA, USA).
FIG. 2B illustrates that 4-HC-induced loss of T24 viability was rescued by cerium oxide nanoparticle (CeNP) treatment (n=3). […] Fluorescence microscope images of the groups: (1) control group; (2) only 4-HC group: 37.5 μM 4-HC added for 4 h to induce cell oxidative stress; (3) CeNP treatment group: 5 μg/mL CeNPs were applied for 24 h before 4-h induction with 37.5 μM 4-HC; and (4) CeNP-only group: only 5 μg/mL CeNPs were applied for 24 h. […] Values are expressed as the mean±SD. Data were analyzed by one-way analysis of variance with Tukey's multiple comparisons test. *P<0.05, **P<0.01. n.s.: no statistical difference, (n=3).
Human urothelial T24 cells (#60062, BCRC, Taiwan) were cultured in 90% McCoy's 5a medium (Sigma, St. Louis, MO, USA) with 1.5 mM L-glutamine, 10% (v/v) fetal bovine serum, and 1% (v/v) PS. Cells were maintained at 37° C. in a humidified incubator containing 5% CO2 [6], and 4-HC was used to induce cellular oxidative stress. T24 cells were seeded into a 96-well plate at a density of 10^4 cells/well and incubated for 24 h until full adhesion was achieved. […]

## O=P1(N(CCCl)CCCl)NC(OO)CCO1 (stereo not shown) [4-HC, 4-hydroperoxycyclophosphamide]
  cell viability of T24 cells: approximately 50%
